From patent US10323019B2, “Pyrazolylaminobenzimidazole derivatives as JAK inhibitors” (Eli Lilly and Company, priority 2016, dated 2019)
Read-outs that look alike come from different tables or passages of the source.

Assays:
[1] = biological target: T1, JAK1 (Homo sapiens (Human), UniProt P23458); assay: JAK LanthaScreen Kinase Assay (TR-FRET), JAK1 in vitro enzyme assay; assay type: biochemical; details: 20.0 μM ATP
Experimental: (§1) The JAK LanthaScreen™ Kinase Assay (Invitrogen) is used to determine the ability of test compounds to inhibit JAK1, JAK2, and JAK3 kinase activity. These are TR-FRET assay formats that use long-lifetime terbium labeled antibody as the donor species and GFP-STAT1 as the acceptor species. Use the TR-FRET ratio to monitor JAK kinase activity where an increase in phosphorylation of the GFP-STAT1 results in an increase in the TR-FRET ratio. Perform the kinase reaction using a 12.5 μl reaction volume in shallow black 384-well Proxiplate®. Add reagents to obtain final reaction conditions of […], 1.76 mM Triton X-100, ATP (20.0 μM for JAK1 and JAK3 or 5 μM for JAK2) enzyme assays, 10.0 mM MgCl2, 1 mM EGTA and 0.01% Brij-35, […] GFP-STAT1, 14 nM JAK1 enzyme for JAK1, 1.0 nM for JAK2 or 2.5 nM for JAK3 enzyme assays, and 4% DMSO and serial dilutions of test compound (diluted 1:3 from 20,000 to 1 nM). Following ATP/GFP-STAT1 addition, centrifuge the assay plates for 1 minute at 1000 revolutions per minute (RPM). Allow the plates to incubate at RT for 60 minutes and then add 12.5 μl of a stopping buffer containing 20 mM EDTA, 2 nM Terbium-anti-phosphorylated Signal Transducers and Activators of Transcription [phosphorylation Tyrosine 701 amino acid] […] Use ACTIVITYBASE® 4.0 to fit the percent inhibition and ten-point compound concentration data to a four-parameter logistic equation.

[2] = biological target: JAK3 (Homo sapiens (Human), UniProt P52333); assay: JAK LanthaScreen Kinase Assay (TR-FRET), JAK3 in vitro enzyme assay; assay type: biochemical; details: 20.0 μM ATP
Experimental: as §1

[3] = biological target: T1, JAK1; assay: Human whole blood assay: pSTAT3 (JAK1) in lymphocytes, IL6 stimulated; assay type: cell-based; details: IL6, pSTAT3 in CD4+ lymphocytes
Description: (§2) Human Whole Blood Assays: Determination of pSTAT3 (JAK1) and pSTAT5 (JAK2) in Lymphocytes and Monocytes
(§3) Human whole blood (HWB) assays were developed and validated to determine the JAK1 and JAK2 selectivity of test compounds.
(§4) Dilute the test compounds, 10 points, (1:3) in DMSO 100% and a step down in PBS+0.1% BSA. Use Tofacitinib as a reference compound in each plate, as well as a maximum signal (stimulated wells) and a minimum signal (no stimulated wells) in order to normalize data. Obtain a pool of HWB from 4 different healthy donors. Plate the blood in a 96 well plate using a Tecan Evo 96w and incubate with test compounds for 1 h at RT. After this time of incubation, stimulate HWB with both IL6 (206-IL, R&D System) and GM-CSF (PHC2015, Life Technologies) for 15 more minutes. Add a viability dye (65-0865, eBiosicience) (1:1000) using a Tecan Evo 96w (5×mix).
(§5) The final concentrations in the assay are the following: 100 (μM for compounds, 50 μM for Tofacitinib, 0.1 μg/mL IL6, 0.038 μg/mL GM-CSF and 1% DMSO. Lyse and fix HWB using a Lyse/fix buffer (558049, Becton Dickinson) by adding 900 μL of lysis buffer using Tecan Evo 96w (mix 10× high speed). Incubate HWB in bath at 37° C. for 10 minutes. Centrifuge HWB at 500 G, 8 min and discard supernatant. Add cold MeOH using a Tecan Exo 96w in order to permeabilize cells. Incubate blood cells on ice during 30 min. After this, wash cells 2× using Staining buffer (554656, Becton Dickinson), spin at 3000 rpm, 2 min. discard supernatant, and add the following antibodies: Anti-Human CD4 PE, 1:100 (12-0048, eBioscience), Anti-Human CD33 eFluor® 450, 1:50 (48-0337, eBioscience), Phospho-STAT5 (Tyr694) (C71E5) Rabbit mAb, 1:100 (Alexa Fluor® 488 Conjugate) (3939, Cell Signaling) and Phospho-STAT3 (Tyr705) (D3A7) XP™ Rabbit mAb 1:200, (Alexa Fluor® 647 Conjugate) (4324, Cell Signaling). Incubate the antibodies for 1 h in dark at RT, then wash cells 2× and read on Cytometer Macsquant (Miltenyi Biotec). Gate the data on CD4+ (lymphocytes) and CD4Low CD33Hi (monocytes), to measure the fluorescence intensity from cells expressing pSTAT3 and pSTAT5, respectively. Analyze the data using FlowJo v 10 and then normalize the median of fluorescence versus maximum and minimum signal to determine the IC50s. Use Graph Pad Prism 5™ to represent the dose response curves.

[4] = biological target: JAK1 (Rattus norvegicus, UniProt G3V9W2); assay: Rat PK/PD assay: rat whole blood ex vivo JAK1 activity (pSTAT3); assay type: in vivo; details: 30 mpk oral
Experimental: (§6) Male Wistar rats, 265-285 grams (Charles River) were used for oral gavage dosing. Dose the animals (Oral gavage) at 1.82 mL/kg (0.5 mL per 275 grams). Formulate the compounds in 1% HEC vehicle containing 0.25% Tween 80 and 0.05% antifoam with 1.1 molar equivalent of methanesulfonic acid to form an in situ salt. Formulate compounds once per week, and store at 4° C. At various time points, obtain rat whole blood via tail vain bleeding in Multivette 600 μl EDTA blood collection tubes (cat#151671100PK100, Sarstedt Inc) and use for ex vivo JAK1 and JAK2 assay. Aliquot 100 ul of blood from each rat into a 96-well round bottom plate. Stimulate whole blood by recombinant IL-6 ([…], and recombinant mouse GM-CSF (cat#415-ML, lot#, R&D) for 12 min at rt. After cytokine stimulation, add whole blood into Lyse/fix (cat#558049, lot#, BD) in minitube rack; mix well 5×. Incubate 10 min at rt. Spin minitube rack at 600 g for 4 min. Aspirate with 12-channel manifold. Transfer contents of minitube rack to 96 well round-bottom plates. Spin down the cells at 3000 rpm for 1 min and discard the supernatant. Mix the cells in the well with 100 ul ice-cold MeOH and incubated on ice for 30 min. Add 150 ul PBS+2% FCS into each well and spin down at 3000 rpm, 2 min. Wash cells with 2× of 250 ul PBS+2% FCS. For cell surface and intracellular staining, mix all antibodies and add into each well and incubate 1 hr at rt in dark. The antibodies used for staining are as following: pSTAT3, Alexa Fluor 647 (cat#4324s, lot, Cell Signaling); pSTAT5, Alexa Fluor 488 (cat#3939s, lot#, Cell Signaling), anti-rat CD4, V450 (cat#561579, lot#. BD); anti-rat CD11b, Percp eFluor710 (cat#12-0110-82, lot#, eBioscience) After staining cells with Abs, wash the plates twice with PBS+2% FCS and finally re-suspend in the same 150 ul of solution. Assess cell viability by Viability Dye 780 (cat#65-0865-14, lot#, eBioscience). Perform the cytometry assay using FORTESSA.

[5] = system: paw swelling in Lewis rats; assay: Rat collagen-induced arthritis (CIA) model; assay type: in vivo
Experimental: Rat Collagen-Induced Arthritis (CIA) Model
This protocol uses Lewis rats (weight 150-175 grams) from Charles River. On day 0, anesthetize rats with Isoflurane. On day 1, immunize intradermally with collagen emulsion in two sites on the lower lumbar region, above the base of the tail. Dose volume is a minimum of 0.4 mL per injection site. On day 8, anesthetize rats with Isoflurane and immunize intradermally with collagen emulsion in two sites on the lower lumbar region, above the base of the tail. Enroll rats into treatment groups on day 12, based on inflammation (redness and/or swelling) in their hind paws. Randomize animals for Treatment Phase based on ankle measurement values and body weight using block randomization allocation tool. Record ankle swelling on days 1, 8, and 11 and then three times per week following enrollment up to and including the day of necropsy. Dose compounds orally once a day starting on day 12 (after randomization) up to day 25. The compounds of Examples 6 and 7 were evaluated in the protocol essentially as described above.

[6] = biological target: JAK2 (Rattus norvegicus (Rat), UniProt Q62689); assay: Rat PK/PD assay: rat whole blood ex vivo JAK2 activity (pSTAT5); assay type: in vivo; details: 30 mpk oral
Experimental: as §6

[7] = biological target: T2, JAK2 (Homo sapiens (Human), UniProt O60674); assay: JAK LanthaScreen Kinase Assay (TR-FRET), JAK2 in vitro enzyme assay; assay type: biochemical; details: 5 μM ATP
Experimental: as §1

[8] = biological target: T2, JAK2; assay: Human whole blood assay: pSTAT5 (JAK2) in monocytes, GM-CSF stimulated; assay type: cell-based; details: pSTAT5 in CD4Low CD33Hi monocytes
Description: as §2, §3, §4, §5

[9] = system: paw swelling and bone mineral density loss in Lewis rats; assay: Rat adjuvant-induced arthritis (AIA) model; assay type: in vivo; details: naïve rat as 100% inhibition
Experimental: Rat Adjuvant-Induced Arthritis (AIA) Model
The effects of compounds on polyarthritis inflammation and ankle joint bone erosion can be evaluated in a rat adjuvant-induced arthritis (AIA) model. Use Male Lewis rats with a mean body weight of 185 g for the study. Induce arthritis by intra-dermal injection located at the base of the tail with 100 μL of adjuvant suspended immunization emulsion oil. Randomize animals based on the mean paw thickness and body weight on day 10 into study groups with 8 rats in each group. Prepare compounds in 1% HEC/0.25% P80/0.05% AF in purified water and dose daily via oral gavage starting from day 11 post immunization for 14 days. Quantitate paw thickness with the caliper measurement on both ankles. Assess group differences using a one-way ANOVA followed by Dunnett's post-test for multiple comparisons against vehicle controls. The compound of Example 10 are evaluated in the protocol essentially as described above.

T1 sequence (P23458 whole entry): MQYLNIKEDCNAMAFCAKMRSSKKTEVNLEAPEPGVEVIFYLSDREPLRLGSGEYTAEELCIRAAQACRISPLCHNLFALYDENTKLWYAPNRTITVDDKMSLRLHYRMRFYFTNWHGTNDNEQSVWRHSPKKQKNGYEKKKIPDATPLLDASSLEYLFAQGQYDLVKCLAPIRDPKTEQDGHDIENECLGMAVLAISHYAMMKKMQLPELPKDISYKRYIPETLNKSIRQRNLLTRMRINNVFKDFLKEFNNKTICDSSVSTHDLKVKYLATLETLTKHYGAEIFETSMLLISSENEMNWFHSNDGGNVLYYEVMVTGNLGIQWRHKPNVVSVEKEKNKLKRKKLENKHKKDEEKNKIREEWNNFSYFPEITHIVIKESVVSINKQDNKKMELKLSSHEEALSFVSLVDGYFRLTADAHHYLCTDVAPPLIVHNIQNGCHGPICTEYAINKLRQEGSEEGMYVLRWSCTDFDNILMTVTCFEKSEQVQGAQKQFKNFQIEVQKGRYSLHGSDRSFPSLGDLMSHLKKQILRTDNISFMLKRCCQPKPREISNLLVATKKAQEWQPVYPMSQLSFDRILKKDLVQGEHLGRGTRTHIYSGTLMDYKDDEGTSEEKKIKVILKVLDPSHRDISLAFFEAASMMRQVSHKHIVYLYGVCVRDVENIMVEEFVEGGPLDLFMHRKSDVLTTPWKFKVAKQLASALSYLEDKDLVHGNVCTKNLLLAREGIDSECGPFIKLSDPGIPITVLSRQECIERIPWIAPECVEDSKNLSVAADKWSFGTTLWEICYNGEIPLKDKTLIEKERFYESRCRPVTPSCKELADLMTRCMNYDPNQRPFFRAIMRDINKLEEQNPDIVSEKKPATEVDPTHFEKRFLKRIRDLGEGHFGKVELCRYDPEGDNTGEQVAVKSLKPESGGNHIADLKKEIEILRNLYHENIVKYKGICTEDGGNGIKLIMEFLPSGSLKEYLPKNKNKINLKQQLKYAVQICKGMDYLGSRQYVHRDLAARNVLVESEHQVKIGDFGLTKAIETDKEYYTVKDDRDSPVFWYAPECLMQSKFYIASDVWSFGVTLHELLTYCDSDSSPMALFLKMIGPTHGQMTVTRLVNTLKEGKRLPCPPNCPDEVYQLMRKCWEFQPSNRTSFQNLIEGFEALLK
Chain of JAK1 (Rattus norvegicus, UniProt G3V9W2) (G3V9W2 1-1153): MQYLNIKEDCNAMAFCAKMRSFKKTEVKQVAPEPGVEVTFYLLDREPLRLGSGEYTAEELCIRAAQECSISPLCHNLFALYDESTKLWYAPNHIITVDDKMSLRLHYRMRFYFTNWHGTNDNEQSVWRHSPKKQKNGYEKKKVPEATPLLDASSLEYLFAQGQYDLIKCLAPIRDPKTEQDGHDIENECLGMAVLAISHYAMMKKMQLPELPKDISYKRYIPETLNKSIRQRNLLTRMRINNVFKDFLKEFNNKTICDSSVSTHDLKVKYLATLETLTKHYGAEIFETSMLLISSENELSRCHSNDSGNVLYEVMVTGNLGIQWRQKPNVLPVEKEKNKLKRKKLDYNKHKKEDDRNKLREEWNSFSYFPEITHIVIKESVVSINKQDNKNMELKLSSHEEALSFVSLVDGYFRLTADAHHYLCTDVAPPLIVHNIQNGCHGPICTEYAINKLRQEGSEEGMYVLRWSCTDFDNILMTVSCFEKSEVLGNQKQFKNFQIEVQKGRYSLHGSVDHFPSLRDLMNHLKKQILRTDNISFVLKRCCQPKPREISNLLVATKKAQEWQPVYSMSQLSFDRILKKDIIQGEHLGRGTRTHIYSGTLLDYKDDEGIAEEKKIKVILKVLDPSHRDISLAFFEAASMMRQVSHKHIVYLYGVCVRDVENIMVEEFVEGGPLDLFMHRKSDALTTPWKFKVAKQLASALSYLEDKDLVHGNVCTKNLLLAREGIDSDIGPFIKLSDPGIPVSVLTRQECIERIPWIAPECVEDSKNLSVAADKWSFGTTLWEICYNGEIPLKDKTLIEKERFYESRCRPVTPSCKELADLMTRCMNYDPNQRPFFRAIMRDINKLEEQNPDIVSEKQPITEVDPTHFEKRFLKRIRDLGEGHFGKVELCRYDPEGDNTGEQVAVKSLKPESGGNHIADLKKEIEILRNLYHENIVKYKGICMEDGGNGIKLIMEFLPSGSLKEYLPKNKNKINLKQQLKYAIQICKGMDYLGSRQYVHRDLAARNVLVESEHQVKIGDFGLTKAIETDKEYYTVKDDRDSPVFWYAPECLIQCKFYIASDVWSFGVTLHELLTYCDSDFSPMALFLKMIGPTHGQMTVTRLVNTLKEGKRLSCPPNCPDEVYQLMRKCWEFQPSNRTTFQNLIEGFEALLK
Chain of JAK3 (P52333 whole entry): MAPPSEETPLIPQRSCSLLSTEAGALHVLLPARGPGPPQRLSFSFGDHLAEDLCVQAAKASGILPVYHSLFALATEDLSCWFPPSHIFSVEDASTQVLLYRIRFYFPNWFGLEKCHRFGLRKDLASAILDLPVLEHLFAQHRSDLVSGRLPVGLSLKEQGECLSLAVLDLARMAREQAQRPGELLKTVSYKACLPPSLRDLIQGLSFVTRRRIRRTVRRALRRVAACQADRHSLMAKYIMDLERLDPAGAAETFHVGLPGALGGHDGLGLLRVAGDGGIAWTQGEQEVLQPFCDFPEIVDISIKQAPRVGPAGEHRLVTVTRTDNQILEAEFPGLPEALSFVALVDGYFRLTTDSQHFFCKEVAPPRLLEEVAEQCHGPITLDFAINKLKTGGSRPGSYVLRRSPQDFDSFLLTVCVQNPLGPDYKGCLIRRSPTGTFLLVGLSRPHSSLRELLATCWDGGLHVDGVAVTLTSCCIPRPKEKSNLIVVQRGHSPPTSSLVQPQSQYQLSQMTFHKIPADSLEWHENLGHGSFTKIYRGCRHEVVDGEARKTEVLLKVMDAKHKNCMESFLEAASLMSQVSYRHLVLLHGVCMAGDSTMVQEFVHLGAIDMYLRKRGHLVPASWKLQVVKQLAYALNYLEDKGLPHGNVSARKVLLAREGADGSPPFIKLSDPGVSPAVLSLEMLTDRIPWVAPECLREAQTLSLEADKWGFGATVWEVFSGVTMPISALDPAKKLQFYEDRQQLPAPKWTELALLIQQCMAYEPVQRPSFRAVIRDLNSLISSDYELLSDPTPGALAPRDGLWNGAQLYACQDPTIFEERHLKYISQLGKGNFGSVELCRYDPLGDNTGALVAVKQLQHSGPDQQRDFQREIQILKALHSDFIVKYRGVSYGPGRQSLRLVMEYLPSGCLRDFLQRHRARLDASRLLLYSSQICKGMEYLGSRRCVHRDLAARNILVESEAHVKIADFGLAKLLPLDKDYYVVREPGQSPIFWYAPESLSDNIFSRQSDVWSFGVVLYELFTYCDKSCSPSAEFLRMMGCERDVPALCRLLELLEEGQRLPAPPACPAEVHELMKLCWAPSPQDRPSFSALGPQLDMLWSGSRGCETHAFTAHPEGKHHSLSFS
T2 sequence (O60674 whole entry): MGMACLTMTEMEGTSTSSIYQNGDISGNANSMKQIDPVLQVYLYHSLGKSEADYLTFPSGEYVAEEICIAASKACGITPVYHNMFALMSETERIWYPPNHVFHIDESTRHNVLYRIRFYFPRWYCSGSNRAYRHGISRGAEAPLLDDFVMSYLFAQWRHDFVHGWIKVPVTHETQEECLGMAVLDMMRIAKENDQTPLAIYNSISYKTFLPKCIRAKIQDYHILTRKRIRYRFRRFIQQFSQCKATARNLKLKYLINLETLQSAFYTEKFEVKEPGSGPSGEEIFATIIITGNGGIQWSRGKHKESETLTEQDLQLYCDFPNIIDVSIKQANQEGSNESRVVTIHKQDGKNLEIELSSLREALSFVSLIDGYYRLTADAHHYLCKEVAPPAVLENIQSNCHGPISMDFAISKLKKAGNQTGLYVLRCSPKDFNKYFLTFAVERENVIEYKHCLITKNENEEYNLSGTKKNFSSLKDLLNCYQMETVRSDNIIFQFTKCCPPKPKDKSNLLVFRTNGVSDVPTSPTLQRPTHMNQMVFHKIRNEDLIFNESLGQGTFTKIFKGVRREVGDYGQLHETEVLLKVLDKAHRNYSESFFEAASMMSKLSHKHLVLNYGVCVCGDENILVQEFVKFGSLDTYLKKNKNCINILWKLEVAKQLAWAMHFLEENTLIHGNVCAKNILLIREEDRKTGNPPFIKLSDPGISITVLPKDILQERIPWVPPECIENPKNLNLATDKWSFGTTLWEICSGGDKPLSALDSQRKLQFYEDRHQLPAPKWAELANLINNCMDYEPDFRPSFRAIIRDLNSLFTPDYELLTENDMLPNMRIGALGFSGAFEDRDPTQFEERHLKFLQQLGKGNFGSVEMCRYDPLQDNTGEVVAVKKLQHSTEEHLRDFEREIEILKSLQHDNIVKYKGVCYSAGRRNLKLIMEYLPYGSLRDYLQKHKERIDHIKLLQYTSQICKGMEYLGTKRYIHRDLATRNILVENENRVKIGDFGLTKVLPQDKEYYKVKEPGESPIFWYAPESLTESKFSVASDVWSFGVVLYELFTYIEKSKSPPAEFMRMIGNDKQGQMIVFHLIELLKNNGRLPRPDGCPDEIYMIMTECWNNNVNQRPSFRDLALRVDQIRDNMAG

SMILES	IC50 [1] [nM]	IC50 [2] [nM]	IC50 [3] [nM]	IC50 [7] [nM]	IC50 [8] [nM]	other results
CCn1nc(Nc2cc(OC3CCC(NC[C@@H](O)C(F)(F)F)CC3)cc3c2ncn3C)cc1C (stereo in doubt) [Example 7]	5.43 ± 0.93	6160 ± 2020	4170 ± 1870			JAK1 inhibition 2 hr post dosing ([4]; 2 hr post dosing): 70.7%; JAK1 inhibition 7 hr post dosing ([4]; 7 hr post dosing): 61.0%; Rat paw swelling % inhibition at 3 mpk ([5]; 3 mpk oral once a day day 12 to 25, naïve rat as 100% inhibition): 0%; Rat paw swelling % inhibition at 10 mpk ([5]; 10 mpk oral once a day day 12 to 25, naïve rat as 100% inhibition): 69%; Rat paw swelling % inhibition at 30 mpk ([5]; 30 mpk oral once a day day 12 to 25, naïve rat as 100% inhibition): 73%
Cc1cc(Nc2cc(O[C@H]3CC[C@@H](NC[C@@H](O)C(F)(F)F)CC3)cc3c2ncn3C)nn1C[C@H](C)O [Example 4, (2R)-1,1,1-Trifluoro-3-[(cis-4-{[4-({1-[(2S)-2-hydroxypropyl]-5-methyl-1H-pyrazol-3-yl}amino)-1-methyl-1H-benzimidazol-6-yl]oxy}cyclohexyl)amino]propan-2-ol]						inhibition at 30 mg/kg ([4]; 2 hr post dosing, read-out: JAK1 inhibition 2 hr post dosing): 72%; inhibition at 30 mg/kg ([4]; 7 hr post dosing, read-out: JAK1 inhibition 7 hr post dosing): 22.3%; inhibition at 30 mg/kg ([6]; 2 hr post dosing, read-out: JAK2 inhibition 2 hr post dosing): 22.9%; inhibition at 30 mg/kg ([6]; 7 hr post dosing, read-out: JAK2 inhibition 7 hr post dosing): 20.1%
Cn1cnc2c(Nc3cc[nH]n3)cc(O[C@H]3CC[C@@](C)(NC[C@@H](O)C(F)(F)F)CC3)cc21 [Example 8, (2R)-1,1,1-Trifluoro-3-[(cis-1-methyl-4-{[1-methyl-4-(1H-pyrazol-3-ylamino)-1H-benzimidazol-6-yl]oxy}cyclohexyl)amino]propan-2-ol]	1.91 ± 0.75	1170 ± 470	3130 ± 1100	239 ± 150	9630 ± 2520	
Cc1cc(Nc2cc(O[C@H]3CC[C@@H](NC[C@@H](O)C(F)F)CC3)cc3c2ncn3C)nn1C [Example 9, (2R)-3-{[cis-4-({4-[(1,5-Dimethyl-1H-pyrazol-3-yl)amino]-1-methyl-1H-benzimidazol-6-yl}oxy)cyclohexyl]amino}-1,1-difluoropropan-2-ol]	5.35 ± 0.23	2140 ± 720	4530 ± 2090	767 ± 39	16900 ± 4500	
Cn1cnc2c(Nc3ccn(-c4ccccn4)n3)cc(O[C@H]3CC[C@@H](NC[C@@H](O)C(F)(F)F)CC3)cc21 [Example 10, (2R)-1,1,1-Trifluoro-3-({cis-4-[(1-methyl-4-{[1-(pyridin-2-yl)-1H-pyrazol-3-yl]amino}-1H-benzimidazol-6-yl)oxy]cyclohexyl}amino)propan-2-ol]	1.49 ± 0.49	660 ± 180	1290 ± 640	220 ± 120	6860 ± 2130	% inhibition of BMD loss in paw ([9]; 3 mpk oral daily for 14 days): 39%; % inhibition of paw swelling ([9]; 3 mpk oral daily for 14 days): 26%; % inhibition of BMD loss in paw ([9]; 10 mpk oral daily for 14 days): 81%; % inhibition of paw swelling ([9]; 10 mpk oral daily for 14 days): 63%; % inhibition of BMD loss in paw ([9]; 30 mpk oral daily for 14 days): 84%; % inhibition of paw swelling ([9]; 30 mpk oral daily for 14 days): 73%
